Literature values in US20250312405A1, “FOOD SUPPLEMENT COMPRISING NEOHESPERIDIN DIHYROCHALCONE AND PEPPERMINT OIL” (priority 2022, published 2025).

How the values were obtained:
[1] = system: Campylobacter jejuni; conditions: doses of 0.25 mM
[2] = system: Campylobacter jejuni; conditions: dose of 0.2 mM
[3] = system: HT-29 cells co-cultured with immune cells; conditions: doses of 50 μmoles

SMILES	effect on the motility of Campylobacter jejuni [1]	cell invasion [2]	immune-induced epithelial disfunction by Campylobacter jejuni [3]
Cc1ccc(C(C)C)cc1O [carvacrol]	had an effect on the motility	reduced cell invasion	
COc1cc(/C=C/C(=O)CC(=O)/C=C/c2ccc(O)c(OC)c2)ccc1O [curcumin]			mitigates the immune-induced epithelial disfunction
